Measured values taken from PMC13266999, “Designing Antibiotics with Inherent Resistance to Efflux as a Strategy to Revive Discovery against Multidrug-Resistant Pathogens” (Journal of Medicinal Chemistry, 2026).
≈ marks a conversion by molar mass, not a printed value. Where “and” joins values, the source holds several entries; their conditions need not be identical. Equal entries are not always repeated. Where two headings read alike, the source gives them in different places.

Columns and labels:
S. agalactiae = experiment: MIC (microbroth dilution); assay type: cell-based, Streptococcus agalactiae; conditions: for MIC: Streptococcus agalactiae
Description: All bacteria were maintained on tryptic soy agar (TSA), except Streptococcus spp., which were maintained on Columbia agar plates containing 5% horse blood. All bacterial assays were carried out in tryptic soy broth (TSB), except for Streptococcus spp. which were grown in cation-adjusted Mueller Hinton broth containing 2.5% lysed horse blood. Bacteria were grown to stationary phase in liquid culture overnight, with shaking at 200 rpm, before being back diluted to the relevant starting concentration for each assay below. MICs were measured by the microbroth dilution method. […] Absorbance at OD600 was read on a CLARIOstar spectrophotometer (BMG Labtech) and the MIC was defined as the minimum concentration of compound where no visible growth was detected. The compounds were prepared as a DMSO stock and equivalent concentrations of DMSO had no effect on bacterial growth. MICs were also performed in the presence of the outer membrane permeator, polymyxin b nonapeptide (PMBN) following the same MIC method but with the following variation. The 2-fold dilution series of compound was prepared as above, then 50 μL of PMBN at a final concentration of 30 μg/mL was added to relevant wells, while 50 μL/well of blank media was added to the remaining wells. Bacteria were then added at 50 μL/well for a starting concentration as above. Thirty μg/mL of PMBN had no effect on bacterial growth. The MICs were read and defined as above. All animal procedures were performed by the contract research organization Pharmacology Discovery Services Taiwan in accordance with the Guide for the Care and Use of Laboratory Animals. The procedures were approved by the Institutional Ethics Committee of Pharmacology Discovery Services Taiwan, Ltd. (approval no. AB127662), in compliance with animal welfare legislation in Taiwan.

[1] = test system: S. aureus SA-1199 WT and SA-1199B; experiment: Accumulation assay; assay type: cell-based; conditions: SA-1199B compared to SA-1199
Description: Minor adjustments were made to the protocol previously described by Geddes and Hergenrother. After centrifugation in oil to remove excess compound, the pellets were dissolved in 200 μL of ultrapure sterile water and subjected to five freeze–thaw cycles. Each cycle consisted of 1 min in a dry ice and ethanol bath, followed by vortexing and 3 min in a heat block at 65 °C. Miles Misra viable counts were used to determine the number of colony-forming units (CFUs) for each replicate. These counts were performed for the 0.55 OD inoculum, postcompound incubation, solvent-only control, and lysates.
A 20 μL sample was injected into an Onyx monolithic C18 column and run using a gradient method. The mobile phase began with 10% acetonitrile and 90% water, with the acetonitrile content increased to 90% over 7 min, maintained for 2 min, and then returned to 10%. The area under the curve was automatically calculated using Agilent ChemStation software to determine the level of accumulation within the bacterial cells. Finally, the data were analyzed using GraphPad Prism 10.4.1. Unpaired t test was conducted to evaluate the statistical significance of the level of efflux in the efflux mutant S. aureus 1199B strain compared to the wild-type S. aureus 1199 strain.

COX1(h) = target: T1, COX1(h) (Homo sapiens, UniProt P23219); experiment: SafetyScreen44; assay type: biochemical; conditions: enzymatic activity, 1.0E-05 M
T1 construct: purchased Eurofins (SafetyScreen44)
T1 sequence (P23219 24-599): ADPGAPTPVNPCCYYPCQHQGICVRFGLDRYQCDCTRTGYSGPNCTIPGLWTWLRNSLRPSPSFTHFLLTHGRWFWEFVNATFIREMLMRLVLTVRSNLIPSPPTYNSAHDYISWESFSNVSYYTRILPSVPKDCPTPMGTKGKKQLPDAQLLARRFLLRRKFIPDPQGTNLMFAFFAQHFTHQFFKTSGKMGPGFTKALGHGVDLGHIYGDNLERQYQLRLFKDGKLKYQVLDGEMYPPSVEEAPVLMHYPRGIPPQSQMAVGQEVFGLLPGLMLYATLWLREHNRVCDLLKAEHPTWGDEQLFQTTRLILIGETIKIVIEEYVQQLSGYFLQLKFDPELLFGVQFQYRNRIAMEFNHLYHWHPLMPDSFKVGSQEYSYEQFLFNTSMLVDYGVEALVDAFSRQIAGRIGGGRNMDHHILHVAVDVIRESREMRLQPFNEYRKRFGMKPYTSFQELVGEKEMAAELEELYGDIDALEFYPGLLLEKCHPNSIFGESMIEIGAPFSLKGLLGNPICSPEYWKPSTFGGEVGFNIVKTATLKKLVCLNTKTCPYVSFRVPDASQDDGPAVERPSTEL
Description: (§1) Off-target pharmacology was evaluated using the Eurofins SafetyScreen44 in vitro panel. […] Binding assays were performed using radioligand displacement, and enzyme or uptake assays measured inhibition of control activity using validated detection methods (scintillation counting, fluorimetry or photometry). Responses were expressed as percent inhibition of control binding or activity. Based on Eurofins interpretation guidelines, effects ≥50% were considered significant, effects between 25% and 50% weak to moderate, and effects <25% were not considered biologically relevant.

COX2(h) = target: T2, COX2(h) (Homo sapiens, UniProt P35354); experiment: SafetyScreen44; assay type: biochemical; conditions: enzymatic activity, 1.0E-05 M
T2 construct: purchased Eurofins (SafetyScreen44)
T2 sequence (P35354 18-604): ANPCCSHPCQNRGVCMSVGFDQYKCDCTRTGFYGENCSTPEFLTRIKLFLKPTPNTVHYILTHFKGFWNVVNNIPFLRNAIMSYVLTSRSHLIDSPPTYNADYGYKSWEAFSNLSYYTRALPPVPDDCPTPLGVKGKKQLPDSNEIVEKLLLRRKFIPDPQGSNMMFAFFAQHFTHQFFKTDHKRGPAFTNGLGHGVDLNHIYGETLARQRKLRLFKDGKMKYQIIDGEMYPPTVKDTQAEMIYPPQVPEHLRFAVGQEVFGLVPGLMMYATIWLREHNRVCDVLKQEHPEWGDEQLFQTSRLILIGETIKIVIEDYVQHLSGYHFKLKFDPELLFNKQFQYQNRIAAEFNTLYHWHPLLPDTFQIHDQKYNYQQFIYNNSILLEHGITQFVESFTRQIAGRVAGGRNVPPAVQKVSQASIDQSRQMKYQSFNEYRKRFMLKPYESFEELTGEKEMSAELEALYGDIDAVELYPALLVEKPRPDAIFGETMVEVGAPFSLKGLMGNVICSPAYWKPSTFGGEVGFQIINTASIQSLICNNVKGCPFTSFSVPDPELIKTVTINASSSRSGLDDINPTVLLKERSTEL
Description: as §1

Lck kinase (h) = target: T3, Lck kinase (h) (Homo sapiens, UniProt P06239); experiment: SafetyScreen44; assay type: biochemical; conditions: enzymatic activity, 1.0E-05 M
T3 construct: purchased Eurofins (SafetyScreen44)
T3 sequence (P06239 whole entry): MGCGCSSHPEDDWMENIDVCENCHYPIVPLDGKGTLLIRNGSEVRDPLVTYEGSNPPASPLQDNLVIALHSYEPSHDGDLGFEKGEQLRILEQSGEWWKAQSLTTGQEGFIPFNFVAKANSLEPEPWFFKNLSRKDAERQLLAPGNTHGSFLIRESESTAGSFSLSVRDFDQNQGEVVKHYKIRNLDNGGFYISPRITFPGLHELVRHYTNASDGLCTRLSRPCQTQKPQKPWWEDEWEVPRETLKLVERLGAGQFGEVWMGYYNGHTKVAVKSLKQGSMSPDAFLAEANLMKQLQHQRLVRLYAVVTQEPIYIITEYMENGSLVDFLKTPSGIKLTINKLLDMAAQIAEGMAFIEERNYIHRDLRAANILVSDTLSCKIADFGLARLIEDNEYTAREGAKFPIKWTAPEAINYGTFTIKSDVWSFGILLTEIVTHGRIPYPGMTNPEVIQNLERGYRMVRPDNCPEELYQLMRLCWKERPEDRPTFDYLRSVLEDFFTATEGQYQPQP
Description: as §1

PDE3A (h) = target: T4, PDE3A (h) (Homo sapiens, UniProt Q14432); experiment: SafetyScreen44; assay type: biochemical; conditions: enzymatic activity, 1.0E-05 M
T4 construct: purchased Eurofins (SafetyScreen44)
T4 sequence (Q14432 whole entry): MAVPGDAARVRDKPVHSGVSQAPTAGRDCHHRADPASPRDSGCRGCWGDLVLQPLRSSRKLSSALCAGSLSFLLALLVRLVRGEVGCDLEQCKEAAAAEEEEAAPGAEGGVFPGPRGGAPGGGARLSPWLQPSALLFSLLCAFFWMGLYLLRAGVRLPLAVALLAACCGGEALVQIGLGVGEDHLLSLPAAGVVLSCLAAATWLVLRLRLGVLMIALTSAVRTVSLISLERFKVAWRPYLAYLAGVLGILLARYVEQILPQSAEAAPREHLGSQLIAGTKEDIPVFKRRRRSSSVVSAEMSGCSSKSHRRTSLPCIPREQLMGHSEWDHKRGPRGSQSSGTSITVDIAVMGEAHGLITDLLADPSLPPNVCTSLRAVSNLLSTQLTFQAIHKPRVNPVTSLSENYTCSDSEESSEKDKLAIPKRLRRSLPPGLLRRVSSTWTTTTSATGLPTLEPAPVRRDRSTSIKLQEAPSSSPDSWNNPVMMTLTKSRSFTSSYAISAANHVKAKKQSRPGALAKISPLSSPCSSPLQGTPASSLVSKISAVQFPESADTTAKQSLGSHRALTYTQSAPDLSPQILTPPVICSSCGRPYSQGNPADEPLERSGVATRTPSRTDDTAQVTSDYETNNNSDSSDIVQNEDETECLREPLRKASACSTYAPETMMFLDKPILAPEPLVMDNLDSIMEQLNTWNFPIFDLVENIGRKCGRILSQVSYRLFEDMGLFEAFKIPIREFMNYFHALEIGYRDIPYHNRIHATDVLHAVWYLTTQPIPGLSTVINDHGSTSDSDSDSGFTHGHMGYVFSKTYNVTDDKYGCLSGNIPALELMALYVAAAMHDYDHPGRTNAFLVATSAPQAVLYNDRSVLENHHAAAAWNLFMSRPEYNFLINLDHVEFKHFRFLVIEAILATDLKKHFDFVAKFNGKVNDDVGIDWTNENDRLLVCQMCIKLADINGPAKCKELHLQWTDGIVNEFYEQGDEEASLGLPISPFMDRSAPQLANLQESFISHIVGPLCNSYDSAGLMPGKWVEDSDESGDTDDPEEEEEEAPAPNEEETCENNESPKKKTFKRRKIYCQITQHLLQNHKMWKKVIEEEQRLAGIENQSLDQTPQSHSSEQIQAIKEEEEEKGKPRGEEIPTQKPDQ
Description: as §1

PDE4D2 (h) = target: T5, PDE4D2 (h) (Homo sapiens, UniProt Q08499); experiment: SafetyScreen44; assay type: biochemical; conditions: enzymatic activity, 1.0E-05 M
T5 construct: purchased Eurofins (SafetyScreen44)
T5 sequence (Q08499 303-809): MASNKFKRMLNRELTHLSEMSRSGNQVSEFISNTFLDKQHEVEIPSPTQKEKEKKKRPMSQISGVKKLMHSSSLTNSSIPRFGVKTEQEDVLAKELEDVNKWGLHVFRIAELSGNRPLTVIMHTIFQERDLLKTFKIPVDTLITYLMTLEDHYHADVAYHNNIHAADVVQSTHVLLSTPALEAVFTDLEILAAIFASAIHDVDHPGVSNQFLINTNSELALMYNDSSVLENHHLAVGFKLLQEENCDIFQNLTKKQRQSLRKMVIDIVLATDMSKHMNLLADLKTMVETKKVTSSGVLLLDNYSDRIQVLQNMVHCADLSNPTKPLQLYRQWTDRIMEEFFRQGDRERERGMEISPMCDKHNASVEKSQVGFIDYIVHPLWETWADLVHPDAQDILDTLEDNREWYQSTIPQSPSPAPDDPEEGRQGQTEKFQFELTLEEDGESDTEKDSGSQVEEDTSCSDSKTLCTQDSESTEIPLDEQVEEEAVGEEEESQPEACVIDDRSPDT
Description: as §1

acetylcholinesterase (h) = target: T6, acetylcholinesterase (h) (Homo sapiens, UniProt P22303); experiment: SafetyScreen44; assay type: biochemical; conditions: enzymatic activity, 1.0E-05 M
T6 construct: purchased Eurofins (SafetyScreen44)
T6 sequence (P22303 32-614): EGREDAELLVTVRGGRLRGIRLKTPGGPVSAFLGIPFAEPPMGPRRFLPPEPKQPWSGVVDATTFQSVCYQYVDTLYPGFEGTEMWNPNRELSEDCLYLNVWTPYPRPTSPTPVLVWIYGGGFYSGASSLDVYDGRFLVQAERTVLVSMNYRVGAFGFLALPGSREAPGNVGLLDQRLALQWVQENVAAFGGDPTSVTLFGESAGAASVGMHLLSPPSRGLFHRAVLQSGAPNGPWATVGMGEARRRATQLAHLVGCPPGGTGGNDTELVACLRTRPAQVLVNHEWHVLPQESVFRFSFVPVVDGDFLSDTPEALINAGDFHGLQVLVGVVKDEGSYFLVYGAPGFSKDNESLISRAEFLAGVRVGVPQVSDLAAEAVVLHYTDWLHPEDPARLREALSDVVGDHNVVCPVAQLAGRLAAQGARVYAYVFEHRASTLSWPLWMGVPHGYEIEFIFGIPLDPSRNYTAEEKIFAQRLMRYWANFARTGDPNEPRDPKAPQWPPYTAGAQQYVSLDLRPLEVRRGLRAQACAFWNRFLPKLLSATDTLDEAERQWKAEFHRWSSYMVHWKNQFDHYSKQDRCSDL
Description: as §1

CYP1A = CYP1A (Homo sapiens, UniProt P05177); experiment: CYP inhibition; conditions: human liver microsomes, probe phenacetin, HLM, phenacetin substrate
Chain of CYP1A (P05177 whole entry): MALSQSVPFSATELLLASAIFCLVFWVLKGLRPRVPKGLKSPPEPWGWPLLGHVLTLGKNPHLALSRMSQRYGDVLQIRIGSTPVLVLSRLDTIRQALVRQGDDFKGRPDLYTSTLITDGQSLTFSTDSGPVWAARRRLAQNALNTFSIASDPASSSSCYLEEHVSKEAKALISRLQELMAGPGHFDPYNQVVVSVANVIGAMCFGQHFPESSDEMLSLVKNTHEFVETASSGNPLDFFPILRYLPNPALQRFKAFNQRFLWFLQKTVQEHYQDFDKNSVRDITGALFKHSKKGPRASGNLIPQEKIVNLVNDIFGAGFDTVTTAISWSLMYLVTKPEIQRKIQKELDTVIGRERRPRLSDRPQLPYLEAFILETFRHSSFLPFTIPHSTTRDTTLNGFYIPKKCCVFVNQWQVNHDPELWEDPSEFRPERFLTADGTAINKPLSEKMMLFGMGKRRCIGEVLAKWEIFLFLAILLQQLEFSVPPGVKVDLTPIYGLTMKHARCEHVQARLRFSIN
Description: (§2) Cytochrome P450 inhibition was assessed in vitro using human recombinant enzymes in microsomal preparations. […] Enzyme activity was quantified by monitoring formation of substrate-specific metabolites, and percent inhibition was calculated relative to vehicle control.

CYP2C8 = CYP2C8 (Homo sapiens, UniProt P10632); experiment: CYP inhibition; conditions: HLM, amodiaquine substrate, 10 μM
Chain of CYP2C8 (P10632 whole entry): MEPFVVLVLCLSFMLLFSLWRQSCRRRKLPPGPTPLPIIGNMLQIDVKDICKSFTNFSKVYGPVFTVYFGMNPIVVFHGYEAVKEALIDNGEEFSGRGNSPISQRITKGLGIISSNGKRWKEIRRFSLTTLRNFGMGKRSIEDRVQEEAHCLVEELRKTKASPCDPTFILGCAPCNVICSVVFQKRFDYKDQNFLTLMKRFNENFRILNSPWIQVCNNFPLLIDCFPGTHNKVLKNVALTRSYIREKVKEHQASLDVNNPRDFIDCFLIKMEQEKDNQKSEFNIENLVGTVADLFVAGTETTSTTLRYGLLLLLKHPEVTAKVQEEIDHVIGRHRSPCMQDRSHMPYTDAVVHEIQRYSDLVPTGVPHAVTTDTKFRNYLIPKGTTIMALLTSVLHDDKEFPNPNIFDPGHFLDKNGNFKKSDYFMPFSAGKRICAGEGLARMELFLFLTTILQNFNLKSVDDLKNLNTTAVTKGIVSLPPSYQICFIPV
Description: as §2

CYP3A = experiment: CYP inhibition; conditions: human, human liver microsomes, CYP3A inhibition, HLM
Description: as §2

[2] = Maximum tolerated dose study; conditions: animals N 1-3;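 note: male ICR mice given oral doses under a stepwise escalation scheme to find the highest tolerated dose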
[3] = test system: NorA overexpressing strain NCTC 13616; experiment: Reserpine growth (efflux inhibition) assay; conditions: for AUC of growth curve: biological replicates 1-3
Description: Statistical analyses were performed with GraphPad Prism V9.5.0. […] Unpaired t tests were used when comparing two samples in the gyrase assays.

Compound: C[C@H]1COc2c(N3CC[C@@H](Nc4ncccn4)C3)c(F)cc3c(=O)c(C(=O)O)cn1c23 [Compound 46, (S)-9-Fluoro-3-methyl-7-oxo-10-((R)-3-(pyrimidin-2-ylamino)pyrrolidin-1-yl)-2,3-dihydro-7H-[1,4]oxazino[2,3,4-ij]quinoline-6-carboxylic acid]
- MIC (S. agalactiae; 6175): 0.125 µg/mL (≈ 0.294 µM)
- MIC (S. agalactiae; 8017, read-out: MIC): 0.5 µg/mL (≈ 1.18 µM)
- MIC (S. agalactiae; 8181): 0.125 µg/mL (≈ 0.294 µM)
- MIC (S. agalactiae; 8183): 0.125 µg/mL (≈ 0.294 µM)
- MIC (S. agalactiae; 10069, read-out: MIC): ≤ 0.03 µg/mL
- MIC (S. agalactiae; 10182): 0.125 µg/mL (≈ 0.294 µM)
- MIC (S. agalactiae; 11080, read-out: MIC): 0.25 µg/mL (≈ 0.588 µM)
- MIC (S. agalactiae; 83190): 0.125 µg/mL (≈ 0.294 µM)
- MIC (S. agalactiae; 83740): 0.125 µg/mL (≈ 0.294 µM)
- MIC (S. agalactiae; 84115): 0.125 to 0.5 µg/mL (≈ 0.294 to 1.18 µM)
- MIC range (S. agalactiae; n = 10): 0.06 to 0.5 µg/mL
- level of accumulation [1]: no significant change in accumulation
- % Inhibition (COX1(h)): 30.3185% and 30.3%
- % Inhibition (COX2(h)): 8.111%
- % Inhibition (Lck kinase (h)): -2.891%
- % Inhibition (PDE3A (h)): 7.502%
- inhibition at 10 µM (PDE4D2 (h)): 14.8%
- % Inhibition (acetylcholinesterase (h)): 32.9861% and 33.0%
- inhibition at 10 µM (CYP1A): 9.6%
- CYP2C8 inhibition (CYP2C8): 3.1%
- inhibition at 10 µM (CYP3A; probe midazolam, midazolam substrate): 25.2%
- inhibition at 10 µM (CYP3A; probe testosterone, testosterone substrate): 6.5%
- B.W. ([2]; PO 100 mg/kg, 72 hrs after final dose, 100 mg/kg): 25 and 27
- B.W. ([2]; PO 100 mg/kg, Pre-dose, 100 mg/kg): 24 and 25
- B.W. ([2]; PO 200 mg/kg, 72 hrs after final dose, 200 mg/kg): 26 and 27
- B.W. ([2]; PO 200 mg/kg, Pre-dose, 200 mg/kg): 24 and 23
- B.W. ([2]; PO 400 mg/kg, 72 hrs after final dose, 400 mg/kg): 26 and 22 and 24
- B.W. ([2]; PO 400 mg/kg, Pre-dose, 400 mg/kg): 21 and 20 and 22
- AUC of growth curve ([3]; 0.25 MIC + R (reserpine)): 3.991 and 3.857 and 2.348
- AUC of growth curve ([3]; 0.25 MIC): 5.243 and 5.279 and 3.696
- AUC of growth curve ([3]; 0.5 MIC + R (reserpine)): 3.930 and 3.864 and 2.013
- AUC of growth curve ([3]; 0.5 MIC): 4.798 and 3.349 and 3.713
- efflux liability in reserpine assay ([3]; 0.5x MIC with vs without reserpine): minimal shift
